Test results reported in patent US11352396B2, “Antimicrobial peptides and methods of using same” (Zoetis Services LLC, priority 2017, dated 2022).

How the values were obtained:
S. aureus ATCC 29213 = assay type: cell-based; parameters: key to SA 29213: MIC in μM (lowest conc. with no visible growth); conditions: S. aureus 29213, Table 6
Method: (§1) Peptides according to SEQ ID NOs as listed in Table 1 were prepared by a commercial manufacturer (CS Bio, Menlo Park, Calif.) using solid phase synthesis. Antimicrobial activity was assessed by determining the Minimal Inhibitory Concentration (MIC) against S. aureus and E. coli. Briefly, Microbroth MICs were performed using CLSI methodology (VET01-S2). For S. aureus and E. coli ATCC strains, TSA with 5% lysed horse blood agar was used for overnight culturing at 37° C. ambient air. A 0.5 mM stock for each peptide was made with cell culture water, 0.01% acetic acid and serially diluted and spotted (10 μL) in a 96-well plate for in assay dose titration concentration of 50 μM to 0.05 μM. 0.5 McFarland Standard of each strain was diluted 1:250 in Mueller-Hinton Broth (MHB). 90 μL of culture suspension was then added upon drug in the 96-well plate for overnight incubation for 18-20 hours. The MIC was determined visually at the first well of no visible growth at the corresponding concentration.

E. coli ATCC 25922 = assay type: cell-based; conditions: E. coli 25922, Table 6
Method: as §1

[1] = system: MSSP (Methicillin-Susceptible Staphylococcus pseudintermedius); assay: MIC against selected strains of MSSP; assay type: cell-based; parameters: MIC MSSP 49051 / MIC MSSP 81923 / MIC MSSP 84250 / Effect on MSSP 86000 / Effect on MSSP 72036 / Effect on MSSP 78032: unit not given beside the values; Effect on MSSP 71990 / Effect on MSSP 86001 / Effect on MSSP 72191 / Effect on MSSP 76986 / Effect on MSSP 77378 / Effect on MSSP 81923 / Effect on MSSP 84250 / Effect on MSSP 84658: unit: µM; conditions: for SP 49051: S. pseudintermedius 49051, Table 6; for Effect on MSSP 71990: strain 71990, Table 5; for Effect on MSSP 72036: strain 72036, Table 5; for Effect on MSSP 72191: strain 72191, Table 5; for Effect on MSSP 76986: strain 76986, Table 5; for Effect on MSSP 77378: strain 77378, Table 5; for Effect on MSSP 78032: strain 78032, Table 5; for Effect on MSSP 81923: strain 81923, Table 5; for Effect on MSSP 84250: strain 84250, Table 5; for Effect on MSSP 84658: strain 84658, Table 5; for Effect on MSSP 86000: strain 86000, Table 5; for Effect on MSSP 86001: strain 86001, Table 5
In short: (§2)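 Broth microdilution MIC following CLSI VET01-S2: peptides titrated 50 μM to 0.05 μM in assay, inoculum a 0.5 McFarland suspension diluted 1:250 in Mueller-Hinton broth. Incubated overnight (18–20 h); MIC taken visually as lowest concentration without visible growth.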

[2] = system: MRSP (Methicillin-Resistant Staphylococcus pseudintermedius); assay: MIC against selected strains of MRSP; assay type: cell-based; parameters: key to MIC MRSP 72192 / MIC MRSP 76923 / MR 71994 / Mr 88493 / MR 72035 / MR 72192 / MR 76923 / MR 79882 / MR 80279 / MR 81926 / MR 86002 / MR 87665: MIC in μM (visual, first well with no growth); conditions: for MR 71994: MRSP strain 71994, Table 6; for MR 72035: MRSP strain 72035, Table 6; for MR 72192: MRSP strain 72192, Table 6; for MR 76923: MRSP strain 76923, Table 6; for MR 79882: MRSP strain 79882, Table 6; for MR 80279: MRSP strain 80279, Table 6; for MR 81926: MRSP strain 81926, Table 6; for MR 86002: MRSP strain 86002, Table 6; for MR 87665: MRSP strain 87665, Table 6; for Mr 88493: MRSP strain 88493, Table 6
In short: as §2

[3] = system: Canine-derived epithelial keratinocyte (CPEK) cells; assay type: cell-based
In short: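 CPEK cells were dosed with peptides at 50 μM to 0.05 μM and incubated overnight at 37 °C, 5% CO2. Viability was read by CellTiter-Glo luminescence. Percent effect was normalised to 0.1% Triton X-100 (high) and phosphate buffer alone (zero).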

cRBC = assay type: cell-based, canine
In short: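 Washed, plasma-free red cells were incubated with peptide titrated from 50 µM to 0.05 µM for 1 h at 37 °C. Hemolysis was read as OD at 405 nm, scaled between phosphate buffer alone (0%) and 1% Triton X-100 (100%).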

## 99 (KWCFFVCYRGICYRRCRD; Artificial Antimicrobial peptide) [compound 99]
S. aureus ATCC 29213
  SA 29213: 6.2
E. coli ATCC 25922
  EC 25922: 1.6 µM
[1]
  SP 49051: 3.1
  Effect on MSSP 71990: 1.6
  Effect on MSSP 72036: 1.6
  Effect on MSSP 72191: 3.1
  Effect on MSSP 76986: 1.6
  Effect on MSSP 77378: 1.6
  Effect on MSSP 78032: 1.6
  Effect on MSSP 81923: 1.6
  Effect on MSSP 84250: 3.1
  Effect on MSSP 84658: 3.1
  Effect on MSSP 86000: 3.1
  Effect on MSSP 86001: 1.6
[2]
  MR 71994: 1.6
  MR 72035: 3.1
  MR 72192: 3.1
  MR 76923: 1.6
  MR 79882: 1.6
  MR 80279: 1.6
  MR 81926: 3.1
  MR 86002: 3.1
  MR 87665: 1.6
  Mr 88493: 1.6
[3]
  CPEK (50 μM): 19.9
cRBC
  cRBC (50 μM): 100.0

## 100 (KWCFWVCYRGICYRRCRD; Artificial Antimicrobial peptide) [compound 100]
S. aureus ATCC 29213
  SA 29213: 6.2
E. coli ATCC 25922
  EC 25922: 0.8 µM
[1]
  SP 49051: 1.6
  Effect on MSSP 71990: 1.6
  Effect on MSSP 72036: 1.6
  Effect on MSSP 72191: 3.1
  Effect on MSSP 76986: 1.6
  Effect on MSSP 77378: 3.1
  Effect on MSSP 78032: 1.6
  Effect on MSSP 81923: 1.6
  Effect on MSSP 84250: 1.6
  Effect on MSSP 84658: 1.6
  Effect on MSSP 86000: 1.6
  Effect on MSSP 86001: 1.6
[2]
  MR 71994: 1.6
  MR 72035: 3.1
  MR 72192: 1.6
  MR 76923: 1.6
  MR 79882: 1.6
  MR 80279: 1.6
  MR 81926: 1.6
  MR 86002: 1.6
  MR 87665: 1.6
  Mr 88493: 3.1
[3]
  CPEK (50 μM): 29.5
cRBC
  cRBC (50 μM): 100.0

## 102 (KWCFRACYRGICYRRCRD; Artificial Antimicrobial peptide) [compound 102]
S. aureus ATCC 29213
  SA 29213: 6.2
E. coli ATCC 25922
  EC 25922: 1.6 µM
[1]
  SP 49051: 1.6
  Effect on MSSP 71990: 1.6
  Effect on MSSP 72036: 1.6
  Effect on MSSP 72191: 3.1
  Effect on MSSP 76986: 1.6
  Effect on MSSP 77378: 0.8
  Effect on MSSP 78032: 1.6
  Effect on MSSP 81923: 1.6
  Effect on MSSP 84250: 1.6
  Effect on MSSP 84658: 1.6
  Effect on MSSP 86000: 1.6
  Effect on MSSP 86001: 1.6
[2]
  MR 71994: 3.1
  MR 72035: 3.1
  MR 72192: 1.6
  MR 76923: 1.6
  MR 79882: 1.6
  MR 80279: 1.6
  MR 81926: 1.6
  MR 86002: 1.6
  MR 87665: 1.6
  Mr 88493: 3.1
[3]
  CPEK (50 μM): −2.1
cRBC
  cRBC (50 μM): 23.9

## 103 (KWCFRVCKRGICYRRCRD; Artificial Antimicrobial peptide) [compound 103]
S. aureus ATCC 29213
  SA 29213: 25
E. coli ATCC 25922
  EC 25922: 6.2 µM
[1]
  SP 49051: 3.1
  Effect on MSSP 71990: 3.1
  Effect on MSSP 72036: 3.1
  Effect on MSSP 72191: 3.1
  Effect on MSSP 76986: 3.1
  Effect on MSSP 77378: 3.1
  Effect on MSSP 78032: 3.1
  Effect on MSSP 81923: 3.1
  Effect on MSSP 84250: 6.2
  Effect on MSSP 84658: 3.1
  Effect on MSSP 86000: 3.1
  Effect on MSSP 86001: 3.1
[2]
  MR 71994: 3.1
  MR 72035: 3.1
  MR 72192: 3.1
  MR 76923: 3.1
  MR 79882: 3.1
  MR 80279: 3.1
  MR 81926: 3.1
  MR 86002: 3.1
  MR 87665: 3.1
  Mr 88493: 3.1
[3]
  CPEK (50 μM): −0.5
cRBC
  cRBC (50 μM): 7.9

## 104 (KWCFRVCYFGICYRRCRD; Artificial Antimicrobial peptide) [compound 104]
S. aureus ATCC 29213
  SA 29213: 6.2
E. coli ATCC 25922
  EC 25922: 3.1 µM
[1]
  SP 49051: 1.6
  Effect on MSSP 71990: 1.6
  Effect on MSSP 72036: 3.1
  Effect on MSSP 72191: 1.6
  Effect on MSSP 76986: 1.6
  Effect on MSSP 77378: 1.6
  Effect on MSSP 78032: 1.6
  Effect on MSSP 81923: 3.1
  Effect on MSSP 84250: 3.1
  Effect on MSSP 84658: 1.6
  Effect on MSSP 86000: 3.1
  Effect on MSSP 86001: 1.6
[2]
  MR 71994: 3.1
  MR 72035: 1.6
  MR 72192: 1.6
  MR 76923: 1.6
  MR 79882: 1.6
  MR 80279: 1.6
  MR 81926: 1.6
  MR 86002: 1.6
  MR 87665: 3.1
  Mr 88493: 3.1
[3]
  CPEK (50 μM): 6.0
cRBC
  cRBC (50 μM): 100.6

## 105 (KWCFRVCYRGICYRRCRN; Artificial Antimicrobial peptide) [compound 105]
S. aureus ATCC 29213
  SA 29213: 6.2
E. coli ATCC 25922
  EC 25922: 3.1 µM
[1]
  SP 49051: 1.6
  Effect on MSSP 71990: 1.6
  Effect on MSSP 72036: 1.6
  Effect on MSSP 72191: 1.6
  Effect on MSSP 76986: 1.6
  Effect on MSSP 77378: 0.8
  Effect on MSSP 78032: 1.6
  Effect on MSSP 81923: 1.6
  Effect on MSSP 84250: 1.6
  Effect on MSSP 84658: 3.1
  Effect on MSSP 86000: 1.6
  Effect on MSSP 86001: 1.6
[2]
  MR 71994: 1.6
  MR 72035: 1.6
  MR 72192: 1.6
  MR 76923: 1.6
  MR 79882: 0.8
  MR 80279: 1.6
  MR 81926: 1.6
  MR 86002: 1.6
  MR 87665: 1.6
  Mr 88493: 3.1
[3]
  CPEK (50 μM): 8.6
cRBC
  cRBC (50 μM): 97.9

## 106 (KWCWRVCYRGICYRRCRD; Artificial Antimicrobial peptide) [compound 106]
S. aureus ATCC 29213
  SA 29213: 3.1
E. coli ATCC 25922
  EC 25922: 3.1 µM
[1]
  SP 49051: 1.6
  Effect on MSSP 71990: 1.6
  Effect on MSSP 72036: 1.6
  Effect on MSSP 72191: 1.6
  Effect on MSSP 76986: 1.6
  Effect on MSSP 77378: 0.8
  Effect on MSSP 78032: 1.6
  Effect on MSSP 81923: 1.6
  Effect on MSSP 84250: 1.6
  Effect on MSSP 84658: 1.6
  Effect on MSSP 86000: 1.6
  Effect on MSSP 86001: 1.6
[2]
  MR 71994: 1.6
  MR 72035: 3.1
  MR 72192: 1.6
  MR 76923: 1.6
  MR 79882: 0.8
  MR 80279: 1.6
  MR 81926: 1.6
  MR 86002: 1.6
  MR 87665: 1.6
  Mr 88493: 3.1
[3]
  CPEK (50 μM): 25.2
cRBC
  cRBC (50 μM): 101.5
